What follows are compounds tested on Pythium graminicola (assay: Test 4: control effect against damping-off disease of rice by Pythium (soil irrigation)). Conditions: 336 h, 1000 ppm test suspension, 2.5 ml soil irrigation, rice (Koshihikari) in contaminated soil, from degree of disease development.
Format: in vivo
COc1ccc(OS(C)(=O)=O)c2c1COC(c1csc(C3CCN(C(=O)Cn4nc(Cl)cc4Cl)CC3)n1)OC2 (stereo not shown) [Compound 2-33, 4-[4-(6-methoxy-9-methylsulfonyloxy-1,5-dihydro-3H-2,4-benzodioxepin-3-yl)-2-thiazolyl]-1-[2-(3,5-dichloro-1H-pyrazol-1-yl)acetyl]piperidine] was tested, and the pest or weed control at 1000 ppm was no less than 90%.
Compound COc1ccc(OS(C)(=O)=O)c2c1COC(c1csc(C3CCN(C(=O)Cn4nc(C)cc4C)CC3)n1)OC2 (stereo not shown) [Compound 2-34, 4-[4-(6-methoxy-9-methylsulfonyloxy-1,5-dihydro-3H-2,4-benzodioxepin-3-yl)-2-thiazolyl]-1-[2-(3,5-dimethyl-1H-pyrazol-1-yl)acetyl]piperidine] has a pest or weed control at 1000 ppm of no less than 90%.
In the case of CS(=O)(=O)Oc1cccc2c1COC(c1csc(C3CCN(C(=O)Cn4nc(C(Cl)Cl)cc4C(Cl)Cl)CC3)n1)OC2 (stereo not shown) [Compound 2-38, 4-[4-(6-methylsulfonyloxy-1,5-dihydro-3H-2,4-benzodioxepin-3-yl)-2-thiazolyl]-1-[2-[3,5-bis(dichloromethyl)-1H-pyrazol-1-yl]acetyl]piperidine], the pest or weed control at 1000 ppm is reported as no less than 90%.
With CS(=O)(=O)Oc1ccc(Br)c2c1COC(c1csc(C3CCN(C(=O)Cn4nc(C(F)(F)F)cc4C(F)(F)F)CC3)n1)OC2 (stereo not shown) [Compound 2-42, 4-[4-(6-bromo-9-methylsulfonyloxy-1,5-dihydro-3H-2,4-benzodioxepin-3-yl)-2-thiazolyl]-1-[2-[3,5-bis(trifluoromethyl)-1H-pyrazol-1-yl]acetyl]piperidine] the pest or weed control at 1000 ppm was no less than 90%.
CS(=O)(=O)Oc1ccc(I)c2c1COC(c1csc(C3CCN(C(=O)Cn4nc(C(F)(F)F)cc4C(F)(F)F)CC3)n1)OC2 (stereo not shown) [Compound 2-46, 4-[4-(6-iodo-9-methylsulfonyloxy-1,5-dihydro-3H-2,4-benzodioxepin-3-yl)-2-thiazolyl]-1-[2-[3,5-bis(trifluoromethyl)-1H-pyrazol-1-yl]acetyl]piperidine] showed a pest or weed control at 1000 ppm of no less than 90%.
With CS(=O)(=O)Oc1c(F)ccc2c1COC(c1csc(C3CCN(C(=O)Cn4nc(C(F)(F)F)cc4C(F)(F)F)CC3)n1)OC2 (stereo not shown) [Compound 2-48, 4-[4-(7-fluoro-6-methylsulfonyloxy-1,5-dihydro-3H-2,4-benzodioxepin-3-yl)-2-thiazolyl]-1-[2-[3,5-bis(trifluoromethyl)-1H-pyrazol-1-yl]acetyl]piperidine] the pest or weed control at 1000 ppm was no less than 90%.
Work on CS(=O)(=O)Oc1c(F)ccc2c1COC(c1csc(C3CCN(C(=O)Cn4nc(C(F)F)cc4C(F)F)CC3)n1)OC2 (stereo not shown) [Compound 2-49, 4-[4-(7-fluoro-6-methylsulfonyloxy-1,5-dihydro-3H-2,4-benzodioxepin-3-yl)-2-thiazolyl]-1-[2-[3,5-bis(difluoromethyl)-1H-pyrazol-1-yl]acetyl]piperidine] yielded a pest or weed control at 1000 ppm of no less than 90%.
In the case of CS(=O)(=O)Oc1ccc(OS(C)(=O)=O)c2c1COC(c1csc(C3CCN(C(=O)Cn4nc(C(F)(F)F)cc4C(F)(F)F)CC3)n1)OC2 [Compound 2-54, 4-[4-[6,9-bis(methylsulfonyloxy)-1,5-dihydro-3H-2,4-benzodioxepin-3-yl]-2-thiazolyl]-1-[2-[3,5-bis(trifluoromethyl)-1H-pyrazol-1-yl]acetyl]piperidine], the pest or weed control at 1000 ppm is reported as no less than 90%.
Work on CCCCS(=O)(=O)Oc1cccc2c1COC(c1csc(C3CCN(C(=O)Cc4cc(C)ccc4C)CC3)n1)OC2 (stereo not shown) [Compound 3-4, 4-[4-(6-butylsulfonyloxy-1,5-dihydro-3H-2,4-benzodioxepin-3-yl)-2-thiazolyl]-1-[2-(2,5-dimethylphenyl)acetyl]piperidine] yielded a pest or weed control at 1000 ppm of no less than 90%.
CS(=O)(=O)Oc1cccc2c1COC(c1csc(C3CCN(C(=O)Cc4cc(C(F)(F)F)ccc4C(F)(F)F)CC3)n1)OC2 (stereo not shown) [Compound 3-8, 4-[4-(6-methylsulfonyloxy-1,5-dihydro-3H-2,4-benzodioxepin-3-yl)-2-thiazolyl]-1-[2-[2,5-bis(trifluoromethyl)phenyl]acetyl]piperidine] was tested, and the pest or weed control at 1000 ppm was no less than 90%.
With Cc1ccc(C)c(CC(=O)N2CCC(c3nc(C4OCc5c(OS(C)(=O)=O)cc(C)c(C)c5CO4)cs3)CC2)c1 (stereo not shown) [Compound 3-9, 4-[4-(6,7-dimethyl-9-methylsulfonyloxy-1,5-dihydro-3H-2,4-benzodioxepin-3-yl)-2-thiazolyl]-1-[2-(2,5-dimethylphenyl)acetyl]piperidine] the pest or weed control at 1000 ppm was no less than 90%.
CS(=O)(=O)Oc1c(F)ccc2c1COC(c1csc(C3CCN(C(=O)Cc4cc(Cl)ccc4Cl)CC3)n1)OC2 (stereo not shown) [Compound 3-19, 4-[4-(7-fluoro-6-methylsulfonyloxy-1,5-dihydro-3H-2,4-benzodioxepin-3-yl)-2-thiazolyl]-1-[2-(2,5-dichlorophenyl)acetyl]piperidine] gave a pest or weed control at 1000 ppm of no less than 90%.
CS(=O)(=O)Oc1ccc(I)c2c1COC(c1csc(C3CCN(C(=O)Cc4cc(Cl)ccc4Cl)CC3)n1)OC2 (stereo not shown) [Compound 3-20, 4-[4-(6-iodo-9-methylsulfonyloxy-1,5-dihydro-3H-2,4-benzodioxepin-3-yl)-2-thiazolyl]-1-[2-(2,5-dichlorophenyl)acetyl]piperidine] was tested, and the pest or weed control at 1000 ppm was no less than 90%.
